Measurements taken from article PMC12692346, “Imidazolinium-Based NHC–Metal Complexes Overcome Both Cancer Multidrug Resistance and Cisplatin Resistance In Vitro” (International Journal of Molecular Sciences, 2025).

How the values were obtained:
[1] = test system: CST-2/3 cisplatin-resistant cells; assay: Monoculture PrestoBlue cytotoxicity test, cisplatin-resistant CST-2/3; format: cell-based, mouse; settings: for RR_CST resistance ratio (IC50_CST-2/3 / IC50_CST): CST-2/3 vs CST; for IC50: monoculture, 120 h exposure, PrestoBlue
Protocol: (§1) CST, a drug-naïve murine breast cancer cell line, and cisplatin-resistant cells CST-2/3 were seeded in monoculture into 384-well plates (Corning Inc., Corning, NY, USA) at a density of 2500 cells per well using automated liquid-handling. The cells were preincubated for 24 h to ensure adherence, followed by the addition of serially diluted compounds to a final well volume of 60 µL. Following 120 h of continuous drug exposure, cell viability was quantified using the PrestoBlue viability assay (Thermo Fisher Scientific, Waltham, MA, USA) after 1 h incubation at 555 nm excitation and 585 nm emission wavelengths.
(§2) pIC50 values derived from both co- and monoculture systems were determined by a custom program written in C# [25], then average and standard deviations were calculated and transformed to IC50 values. Every compound was tested in at least 3 independent experiments in triplicates.

[2] = test system: CST murine breast cancer cell line; assay: Monoculture PrestoBlue cytotoxicity test, CST; format: cell-based, mouse; settings: 120 h exposure
Protocol: as §1, §2

Mes-Sa/Dx5 eGFP = assay: Triple coculture fluorescence cytotoxicity test, doxorubicin-selected MDR line; format: cell-based, human; settings: for RR_Dx5 resistance ratio (IC50_MDR line / IC50_parental line) of Mes-Sa/Dx5: Mes-Sa/Dx5 vs Mes-Sa; for IC50: triple coculture, 144 h incubation, fluorescence readout
Protocol: (§3) All synthesized complexes and representatives of the respective ligands (Lb, Lc, SIPr, IPr) were tested in a triple coculture of uterine sarcoma cell lines, consisting of the parental Mes-Sa cell line, and its MDR derivatives Mes-Sa/B1 and Mes-Sa/Dx5, transfected or selected in doxorubicin to overexpress P-glycoprotein, respectively (Figure 2a–c, Table S2). Each cell line expresses a distinct fluorescent protein (mCherry, mOrange, and eGFP, respectively), and the total fluorescence of a well is proportional to the cell number, allowing the assessment of compound cytotoxicity.
(§4) In a triple coculture system, cell lines expressing different fluorescent proteins were seeded in the same well. Cell lines (Mes-Sa mCherry, Mes-Sa/B1 mOrange, Mes-Sa/Dx5 eGFP [25]) were admixed and seeded on 384-well plates at a density of 3 × 800 cells/well (1:1:1 ratio), resulting in an overall total of 2400 cells. The next day, serially diluted compounds were added to the wells. Liquid handling was managed by a Hamilton StarLet pipetting robot. After 144 h of incubation, the fluorescence of mCherry (ex/em: 585/610 nm), mOrange (ex/em: 545/567 nm) and eGFP (ex/em: 485/510 nm) was recorded with an EnSpire plate reader (PerkinElmer, Waltham, MA, USA).
as §2

[3] = test system: Mes-Sa mCherry uterine sarcoma cell line; assay: Triple coculture fluorescence cytotoxicity test, parental line; format: cell-based, human; settings: 144 h incubation, fluorescence readout
Protocol: as §3, §4, §2

Mes-Sa/B1 mOrange = assay: Triple coculture fluorescence cytotoxicity test, ABCB1-transfected MDR line; format: cell-based, human; settings: for RR_B1 resistance ratio (IC50_MDR line / IC50_parental line) of Mes-Sa/B1: Mes-Sa/B1 vs Mes-Sa; for IC50: triple coculture, 144 h incubation, fluorescence readout
Protocol: as §3, §4, §2

[4] = test system: MSCL-1 mesenchymal stem cell-like cell line; assay: PrestoBlue cytotoxicity test, non-malignant MSCL-1; format: cell-based, human; settings: for IC50: 72 h treatment, PrestoBlue; for MSCL-1 / CST ratio (IC50_MSCL-1/IC50_cancer line): MSCL-1 vs CST; for MSCL-1 / Mes-Sa ratio (IC50_MSCL-1/IC50_cancer line): MSCL-1 vs Mes-Sa
Protocol: The MSCL-1 line was seeded on 96-well plates with 15,000 cells/well density, and the following day, it was treated with the compounds for 72 h, when cell viability was assessed using a PrestoBlue viability assay.
as §2

SMILES | RR_CST resistance ratio (IC50_CST-2/3 / IC50_CST) [1] | IC50 [1] [µM] | IC50 [2] [µM] | RR_Dx5 resistance ratio (IC50_MDR line / IC50_parental line) of Mes-Sa/Dx5 (Mes-Sa/Dx5 eGFP) | IC50 (Mes-Sa/Dx5 eGFP) [µM] | IC50 [3] [µM] | RR_B1 resistance ratio (IC50_MDR line / IC50_parental line) of Mes-Sa/B1 (Mes-Sa/B1 mOrange) | IC50 (Mes-Sa/B1 mOrange) [µM] | further results
N.N.O=C([O-])C1(C(=O)[O-])CCC1.[Pt+2] [Carboplatin, reference compound] | 7.0 | 6.24 | 0.89 |  |  |  |  |  | 
N.N.[Cl][Pt][Cl] [Cisplatin] | 5.5 | 0.82 | 0.15 | 2.3 | 5.91 | 2.52 | 0.8 | 2.13 | IC50 [4]: 17 µM; MSCL-1 / CST ratio (IC50_MSCL-1/IC50_cancer line) [4]: 113.6; MSCL-1 / Mes-Sa ratio (IC50_MSCL-1/IC50_cancer line) [4]: 6.8
CC(C)c1cccc(C(C)C)c1N1[CH]([Cu][Cl])N([C@@H](C)c2ccccc2)C[C@@H]1C(C)(C)C (some centres unmarked) [Compound 1b] | 1.8 | 4.92 | 2.81 | 1.3 | 2.32 | 1.74 | 4.9 | 8.51 | RR_Dx5 resistance ratio (IC50_MDR line / IC50_parental line) of Mes-Sa/Dx5 (Mes-Sa/Dx5 eGFP; listed as 1b*): 1.9; IC50 (Mes-Sa/Dx5 eGFP; listed as 1b*): 1.46 µM; IC50 ([3]; listed as 1b*): 0.75 µM; RR_B1 resistance ratio (IC50_MDR line / IC50_parental line) of Mes-Sa/B1 (Mes-Sa/B1 mOrange; listed as 1b*): 7.0; IC50 (Mes-Sa/B1 mOrange; listed as 1b*): 5.25 µM
CC(C)c1cccc(C(C)C)c1N1[C](=[Cu][Cl])N([C@@H](C)c2cccc3ccccc23)C[C@@H]1C(C)(C)C [Compound 1d] | 1.3 | 1.82 | 1.38 | 3.4 | 1.74 | 0.51 | 9.8 | 4.94 | 
CC(C)c1cccc(C(C)C)c1N1[C](=[Ag][Cl])N([C@@H](C)c2ccccc2)C[C@@H]1C(C)(C)C [Compound 2b] | 2.2 | 2.17 | 1.01 | 7.3 | 5.5 | 0.75 | 19.1 | 14.3 | 
CC(C)c1cccc(C(C)C)c1N1[C](=[Ag][Cl])N([C@H](C)c2ccc3ccccc3c2)C[C@@H]1C(C)(C)C [Compound 2e] | 1.5 | 1.98 | 1.28 | 5.6 | 5.25 | 0.93 | 7.9 | 7.37 | 
CC(C)c1cccc(C(C)C)c1N1[C](=[Au][Cl])N([C@@H](C)c2ccccc2)C[C@@H]1C(C)(C)C [Compound 3b] | 1.1 | 25.1 | 22.9 | 1.6 | 9.92 | 6.17 | 2.4 | 14.8 | 
CC(C)c1cccc(C(C)C)c1N1[C](=[Au][Cl])N([C@@H](C)c2cccc3ccccc23)C[C@@H]1C(C)(C)C [Compound 3d] | 1.4 | 8.38 | 6.17 | 2.5 | 19.4 | 7.81 | 2.8 | 21.9 | 
C=C[CH2][Pd]([Cl])=[C]1N([C@H](C)c2ccccc2)C[C@H](C(C)(C)C)N1c1c(C(C)C)cccc1C(C)C [Compound 4c] | 1.2 | 1.35 | 1.1 | 4.3 | 10.1 | 2.34 | 2.4 | 5.62 | 
CC(C)c1cccc(C(C)C)c1-n1ccn(-c2c(C(C)C)cccc2C(C)C)[c]1=[Au][Cl] [Compound 7b] |  |  |  | 3.2 | 60.3 | 18.6 | 1.9 | 36.3 | 
C=C[CH2][Pd]([Cl])=[C]1N(c2c(C(C)C)cccc2C(C)C)CCN1c1c(C(C)C)cccc1C(C)C [Compound 8a] | 1.3 | 2 | 1.52 | 2.2 | 5.96 | 2.68 | 2.0 | 5.25 | IC50 [4]: 2.98 µM; MSCL-1 / CST ratio (IC50_MSCL-1/IC50_cancer line) [4]: 2.0; MSCL-1 / Mes-Sa ratio (IC50_MSCL-1/IC50_cancer line) [4]: 1.1
CC(C)c1cccc(C(C)C)c1-n1ccn(-c2c(C(C)C)cccc2C(C)C)[c]1=[Cu+]=[c]1n(-c2c(C(C)C)cccc2C(C)C)ccn1-c1c(C(C)C)cccc1C(C)C.F[B-](F)(F)F [Compound 9b] |  |  |  | 37.3 | 2.15 | 0.058 | 38.0 | 2.19 | 
COc1cc([C@@H]2c3cc4c(cc3[C@@H](O[C@@H]3O[C@@H]5CO[C@@H](C)O[C@H]5[C@H](O)[C@H]3O)[C@H]3COC(=O)[C@H]23)OCO4)cc(OC)c1O [Etoposide, reference compound] |  |  |  | 15.4 |  |  | 9.0 |  | IC50 (Mes-Sa/Dx5 eGFP; Homo sapiens, MES-SA/Dx5): 1.9 µM; IC50 ([3]; Homo sapiens, MES-SA): 0.12 µM; IC50 (Mes-Sa/B1 mOrange; Homo sapiens, MES-SA): 1.11 µM
CC(C)c1cccc(C(C)C)c1-n1cc[n+](-c2c(C(C)C)cccc2C(C)C)c1 [IPr, reference compound] |  |  |  | 23.4 |  |  | 15.5 |  | IC50 (Mes-Sa/Dx5 eGFP; Homo sapiens, MES-SA/Dx5): 51.3 µM; IC50 ([3]; Homo sapiens, MES-SA): 2.19 µM; IC50 (Mes-Sa/B1 mOrange; Homo sapiens, MES-SA): 33.9 µM
CC(C)c1cccc(C(C)C)c1N1C=[N+]([C@@H](C)c2ccccc2)C[C@@H]1C(C)(C)C [Lb] | 2.0 |  |  | 26.1 |  |  | 22.7 |  | IC50 (Mes-Sa/Dx5 eGFP; Homo sapiens, MES-SA/Dx5): 47.9 µM; IC50 ([3]; Homo sapiens, MES-SA): 1.83 µM; IC50 (Mes-Sa/B1 mOrange; Homo sapiens, MES-SA): 41.7 µM; IC50 ([1]; Mus musculus): 9.69 µM; IC50 ([2]; Mus musculus): 4.95 µM
CC(C)c1cccc(C(C)C)c1N1C=[N+]([C@H](C)c2ccccc2)C[C@@H]1C(C)(C)C [Lc] |  |  |  | 30.4 |  |  | 21.4 |  | IC50 (Mes-Sa/Dx5 eGFP; Homo sapiens, MES-SA/Dx5): 73 µM; IC50 ([3]; Homo sapiens, MES-SA): 2.4 µM; IC50 (Mes-Sa/B1 mOrange; Homo sapiens, MES-SA): 51.3 µM
O=C1[O][Pt]2([NH][C@@H]3CCCC[C@H]3[NH]2)[O]C1=O [Oxaliplatin, reference compound] | 9.3 | 3.84 | 0.41 |  |  |  |  |  | 
